From patent publication US20150301067A1, “METHODS AND ASSAYS FOR FACIOSCAPULOHUMERAL MUSCULAR DYSTROPHY” (UNIVERSITY OF WASHINGTON THROUGH ITS CENTER FOR …, priority 2012, published 2015)
Entries after “also recorded” stand apart in the source; their conditions may differ.

Columns and labels:
[1] = system: DUX4 promoter; assay: D4Z4(FFL) DUX4 promoter luciferase reporter in C2C12 cells; format: cell-based; conditions: 3 μM GSKi, vs DMSO
Method: The D4Z4 regulatory region controlling the expression of DUX4^31 was subcloned upstream of the open reading from of the pGL3-basic vector (pGL3) to make D4Z4(FFL). The D4Z4(FFL) was excised using XbaI/SpeI restriction enzymes and ligated into the SpeI site of a 3rd generation lentiviral vector multiple cloning site (pRRL-sinc-PPT-MCS; Gift from Dr. Grant Trobridge).
Cells transduced with D4Z4(FFL) lentivirus vector were seeded in a 96 well dish. Thirty minutes prior to the assay, Hoescht Dye was added to the cell culture medium to a final concentration of 5 μm, and 30 min later the plate was analyzed for DNA content by measuring fluorescence at 355 nm using a multiwell plate reader (ENVISION; PERKIN-ELMER). An equal volume of STEADY-GLO (PROMEGA) was added to each well, and transferred to an opaque dish. Luminescence was read using the plate reader, and normalized to DNA content for each well.

[2] = system: FSHD myotubes; assay: Cell viability assay (ATP content normalized to DNA content); format: cell-based, human; conditions: cultured in the absence or presence of GSKi
Method: Hoescht Dye was added to cells in culture for 30 minutes at a final concentration of 5 μM. Following detachment with trypsin a 50 μL aliquot of the cells was assayed for fluorescence at 355 nm to give an absorbance value for DNA content. An equal volume of CELL TITRE GLO (PROMEGA) was then added to the aliquot, and luminescence was measured. The luminescent value was normalized to the absorbance value for DNA content.

[3] = system: FSHD-myotubes; assay: DUX4-mediated myotube death / apoptosis in FSHD myotubes differentiated in KOSR medium; format: cell-based, human; conditions: for DUX4-mediated myotube death: FSHD-myotubes, KOSR differentiation medium, data not shown
Method: Primary human myoblasts were obtained by written informed consent through the Fields Center at the University of Rochester cell bank. […] Pharmacological inhibitor of glycogen synthase kinase-3-β (GSKi) was used at a final concentration of 3 μM (CHIR99021, STEMGENT; Cambridge. Mass.).
(§1) Immunofluorescent staining for DUX4 was performed using the E5-5 rabbit monoclonal antibody to the C-terminus of DUX4 ^34. Staining was performed by fixing the cells in 4% paraformaldehyde for 10 mins at room temperature, washing with PBS, permeablizing with 0.5% TritonX-100 in PBS for 10 mins at room temperature. The cells were then washed again in PBS and incubated overnight in a 1:10 dilution of the E5-5 antibody. The following day, the cells were washed 3×5 min in PBS and stained using a fluorescent conjugated secondary goat-anti rabbit secondary antibody for 1-2 hr at room temperature. Following a final wash, the cells were counterstained with 4′,6-Diamidino-2-phenylindole dihydrochloride (DAPI, SIGMA ALDRICH), and visualized by microscopy using UV illumination.
To quantify DUX4 expression, the Nikon Ti Eclipse microscope was programmed using the Nikon Elements software to take 36 pictures at random on a 35 mm culture dish, or to scan an entire well of a 384 well dish. These images were then manually inspected and DUX4 (+) nuclei counted. To determine the myotube index, the Nikon Elements software was used to create binary masks of the DAPI and MHC channels for each image. This technique created a border around each nucleus or cluster of nuclei which could then be used to measure the sum pixel intensity from the DAPI channel. The average sum pixel intensity for single nuclei from each image was determined, and used to calculate the number of nuclei within clusters. By intersecting the binary images from the DAPI and MHC channels the inventors could exclude the nuclei that were outside of MHC(+) myotubes, and create a myotube fusion index. The myotube fusion index was compared to manual counts to confirm accuracy of the calculations.

[4] = system: DUX4; assay: Immunofluorescent count of DUX4(+) nuclei in MHC(+) myotubes; format: cell-based, human; conditions: for reduction in the number of nuclei expressing DUX4: FSHD1(2349) myotubes, KOSR medium
Method: (§2) Primary human myoblasts were obtained by written informed consent through the Fields Center at the University of Rochester cell bank. Myoblasts were grown in F10 medium (INVITROGEN, Carlsbad, Calif.) supplemented with 20% fetal bovine serum (FBS; THERMO SCIENTIFIC (HYCLONE), and 50 U/50 μg penicillin/streptomycin (Pen-Strep; INVITROGEN), 10 ng bFGF (INVITROGEN), and 1 μM dexamethasone (SIGMA ALDRICH; St. Louis, […].)^9. Differentiation was induced using F10 medium supplemented with 1% equine serum and ITS supplement (insulin 0.1%, 0.000067% sodium selenite, 0.055% transferrin; INVITROGEN), or in DMEM:F12 (1:1) with 3.151 g/L glucose, 10 mM non-essential amino acids (INVITROGEN), […] sodium pyruvate, 20% knockout serum replacer (INVITROGEN, #10828010). Pharmacological inhibitor of glycogen synthase kinase-3-β (GSKi) was used at a final concentration of 3 μM (CHIR99021, STEMGENT; Cambridge. Mass.). Recombinant human Wnt3A was used at a concentration of 250 ng/mL, and confirmed to be bioactive prior to use in the assays described herein.
as §1, with “Following a final wash, the cells were counterstained with 4′,6-Diamidino-2-phenylindole dihydrochloride (DAPI, SIGMA ALDRICH), and visualized by microscopy using UV illumination.” left out
To quantify DUX4 expression, the Nikon Ti Eclipse microscope was programmed using the Nikon Elements software to take 36 pictures at random on a 35 mm culture dish, or to scan an entire well of a 384 well dish. These images were then manually inspected and DUX4 (+) nuclei counted. […] The average sum pixel intensity for single nuclei from each image was determined, and used to calculate the number of nuclei within clusters. […]

[5] = system: DUX4; assay: RT PCR of DUX4 transcripts in primary human cells; format: cell-based; conditions: normal(NR201) and FSHD2(2305) primary human cells, 3 μM GSKi
Method: as §2
RNA was isolated by TRIZOL extraction according to the manufacturers protocol (INVITROGEN), except that the final ethanol precipitate was resuspended 1×DNase I buffer and 5 U DNase I for 15 mins and the RNA was extracted with phenol/chloroform and precipitated with ethanol using RNase-free glycogen (NEW ENGLAND BIOLABS) as a carrier. […]

Cc1c[nH]c(-c2cnc(NCCNc3ccc(C#N)cn3)nc2-c2ccc(Cl)cc2Cl)n1 [GSKi]
upregulation of DUX4 expression during myotube formation (luciferase activity normalized to DNA content) [1]: reduced the characteristic upregulation of DUX4 expression
ATP content of myoblasts or myotubes [2]: No difference
myotube apoptosis ([3]; FSHD myotubes, GSKi treatment alone (3 μM)): did not prevent myotube apoptosis; also recorded: insufficient to prevent apoptosis
reduction in the number of DUX4(+) nuclei in myotubes ([4]; FSHD myoblasts differentiated in the presence of 3 μM GSKi, three cell lines): greater than 50%
upregulation of DUX4 expression during myotube formation (DUX4 transcripts) [5]: reduced the characteristic upregulation of DUX4 expression

O=C(NCc1ccccc1)c1csc(Nc2ccncn2)n1 [Thiazovivin]
DUX4-mediated myotube death [3]: also prevented DUX4-mediated myotube death
reduction in the number of nuclei expressing DUX4 ([4]; 0.5 μM Thiazovivin): 10 fold

C[C@@H](N)[C@H]1CC[C@H](C(=O)Nc2ccncc2)CC1 [Y-27632]
DUX4-mediated myotube death [3]: also prevented DUX4-mediated myotube death
reduction in the number of nuclei expressing DUX4 ([4]; 10 μM Y-27632): 10 fold

O=C1O[C@H]([C@@H](O)CO)C(O)=C1O [ascorbic acid]
DUX4-mediated myotube death [3]: observed DUX4-dependent myotube apoptosis despite treatments

Cc1ccc(C(=O)Cn2c3c(sc2=N)CCCC3)cc1 [pifithrin-α]
DUX4-mediated myotube death [3]: efficiently prevented DUX4-mediated myotube death

OCCS [β-mercapto-ethanol]
DUX4-mediated myotube death [3]: observed DUX4-dependent myotube apoptosis despite treatments

Arsenic trioxide
DUX4-mediated myotube death [3]: efficiently prevented DUX4-mediated myotube death
